The text below walks through data of paper PMC4914680 (Antimicrobial Agents and Chemotherapy, 2016).

Assay [1] deals with NRTI (184V) resistant virus (LAI M184V). Type of assay: cell-based, HIV-1.
Assay [2] relates to V370M virus (recombinant virus with gag/pr genes from a clinical isolate). The assay can be described thus: microbe, parasite or virus in culture. The note with it: Human immunodeficiency virus 1, MT2, read-out: EC50 (SD). Format: cell-based, HIV-1.
Assay [3] deals with NRTI (41L, 67N, 215F, 219E, 69N), AZT-resistant virus 7324-1. Format: cell-based, HIV-1.
Assay [4] deals with PI (54V, 82A, 84V 84V) resistant virus. Type of assay: cell-based, HIV-1.
The test system of assay [5] is HIV-1 NL4-3 ΔV370 variant (NLRepRlucP373S/Δ370). Type of assay: cell-based.
Assay [6] relates to NNRTI (103N, 181C) resistant virus. Type of assay: cell-based, HIV-1.
The subject of assay [7] is INI (140S, 148H) resistant virus (NLRepRluc-G140S/Q148H). Format: cell-based, HIV-1.
In assay [8] the test system is subtype B gag/pr recombinant viruses. The assay can be described thus: Multiple-cycle Gag/Pr phenotyping assay. Type of assay: cell-based, HIV-1.
In another assay the test system is HIV-1 NL4-3. Kind of assay: Time-of-addition study, NL4-3-infected B6 cells. Format: cell-based. As to conditions: single cycle; for effect on luciferase signal by time of addition: 24 h postinfection; for time postinfection at which effectiveness begins to be lost: >100-fold EC50.
Assay [9] deals with HIV-LAI envelope-pseudotyped RepRlucP373SΔenv virus. The assay can be described thus: Two-stage single-cycle pseudotype assay (HIV-1 entry assay). Type of assay: cell-based.
In another assay the target is T1, HIV-1 gp160 (Human immunodeficiency virus type 1 group M subtype B, UniProt P04578).
T1 construct: expressed in transfected cells; host or cells: NL-TOE donor cells (target cells: HeLa C14)
The assay can be described thus: HIV-1 cell fusion assay. Type of assay: cell-based.

In another assay the target is HIV-1 Gag (WT LAI VLPs) (Human immunodeficiency virus type 1 group M subtype B, UniProt P03348). The assay can be described thus: [3H]BMS-955176-Gag binding (SPA). As to conditions: raltegravir at 10 μM; data not shown.
The target of assay [10] is WT HIV-1 VLPs, p25 to p24 (CA/SP1) cleavage (Human immunodeficiency virus type 1 group M subtype B, UniProt P03348). Kind of assay: HIV-1 VLP protease cleavage assay. Format: biochemical. The note with it: Western blot. For orientation: A western blot detects proteins with antibodies after separation by electrophoresis.
The test system of assay [11] is PI (46I, 82F, 84V, 90 M) resistant virus. Format: cell-based, HIV-1.
Where [12] appears, read: Human immunodeficiency virus 1, NL43, MT2.
[13] abbreviates: Human immunodeficiency virus 1, NL43, MT2, read-out: EC50 (SD).
Setting [14] is: Human immunodeficiency virus 1, read-out: EC50 (mean), sublibrary, None (WT), n=21.
Where [15] appears, read: Human immunodeficiency virus 1, read-out: EC50 (mean), sublibrary, T371A/Q/N/S/TT, n=4.
Where [16] appears, read: Human immunodeficiency virus 1, read-out: EC50 (mean), sublibrary, V362I, n=3.
Setting [17] is: Human immunodeficiency virus 1, read-out: EC50 (mean), sublibrary, V370A + ΔT371, n=3.
Where [18] appears, read: Human immunodeficiency virus 1, read-out: EC50 (mean), sublibrary, V370A, n=3.
Where [19] appears, read: Human immunodeficiency virus 1, read-out: EC50 (mean), sublibrary, V370I/L/T, n=3.
Setting [20] is: Human immunodeficiency virus 1, read-out: EC50 (mean), sublibrary, V370 M, n=5.

“Also recorded” adds a separate entry of the source. Read-outs that look alike come from different tables or passages of the source. Bounds are passed on as bounds.

For `COC(=O)N[C@H](C(=O)N[C@@H](Cc1ccccc1)[C@@H](O)CN(Cc1ccc(-c2ccccn2)cc1)NC(=O)[C@@H](NC(=O)OC)C(C)(C)C)C(C)(C)C` [Atazanavir], the “Fold change in EC50 (SD) relative to parental strain” value is on record as 1.1 (0.1) in assay [1]; 2.27 (0.02) in assay [3]; 39 in assay [4]; 0.93 (0.03) in assay [6]; 1.0 (0.21) in assay [7]. Moreover, the EC50 is 2.3 nM in assay [2] and 3.8 nM in assay [5] (setting [12]).

In the case of `C=C(C)[C@@H]1CC[C@]2(C(=O)O)CC[C@]3(C)[C@H](CC[C@@H]4[C@@]5(C)CC=C(c6ccc(C(=O)O)cc6)C(C)(C)[C@@H]5CC[C@]43C)[C@@H]12` [BMS-1], the EC50 in assay [5] (setting [13]) was over 6000 nM.

In the case of `C=C(C)[C@@H]1CC[C@]2(C(=O)NCCc3ccccn3)CC[C@]3(C)[C@H](CC[C@@H]4[C@@]5(C)CC=C(c6ccc(C(=O)O)cc6)C(C)(C)[C@@H]5CC[C@]43C)[C@@H]12` [BMS-2], the EC50 in assay [5] (setting [13]) worked out at 415 nM; in assay [8] (setting [14]) it was 14 nM; in assay [8] (setting [15]), 49 nM; in [8] (setting [16]), 29 nM; in assay [8] (setting [17]), 629 nM; in [8] (setting [18]), 38 nM. In addition, the results for the EC50 in assay [8] (setting [19]) and in assay [8] (setting [20]) were 26 nM and 76 nM, respectively.

On to `C=C(C)[C@@H]1CC[C@]2(C(=O)NCCN(C)C)CC[C@]3(C)[C@H](CC[C@@H]4[C@@]5(C)CC=C(c6ccc(C(=O)O)cc6)C(C)(C)[C@@H]5CC[C@]43C)[C@@H]12` [BMS-3], for which the EC50 in assay [5] (setting [13]) was 31 nM.

Take `COc1ccnc2[nH]cc(C(=O)C(=O)N3CCN(C(=O)c4ccccc4)C[C@H]3C)c12` [BMS-378806]: in the assay on HIV-1 NL4-3, the “effect on luciferase signal by time of addition” value (“effect on luciferase signal” below) is given as “fully inhibitory (0% of control) only when added at the time of infection” and the “time postinfection at which effectiveness begins to be lost” value (shortened to “time postinfection”) is at most 4 h. Besides, in assay [9], the “inhibition of luciferase, compound added at stage 1 (virus production)” value (from here on “inhibition of luciferase … (virus production)”) is on record as “inhibitory when added at either stage 1 or 2” and the “inhibition of luciferase, compound added at stage 2 (infection)” value (“inhibition of luciferase … (infection)” below) is listed as “inhibitory when added at either stage 1 or 2”. Also, the EC50 on HIV-1 gp160 (cell-cell fusion, luciferase, read-out: EC50) was 0.9 nM.

As to `C=C(C)[C@@H]1CC[C@]2(C(=O)O)CC[C@]3(C)[C@H](CC[C@@H]4[C@@]5(C)CC[C@H](OC(=O)CC(C)(C)C(=O)O)C(C)(C)[C@@H]5CC[C@]43C)[C@@H]12` [BVM, 3-O-(3′,3′-dimethylsuccinyl)betulinic acid, reference compound], the “competition for the binding of [3H]BMS-955176” value on HIV-1 Gag (WT LAI VLPs) is “A similar result was obtained by displacement”. Moreover, the “effect on luciferase signal” value with HIV-1 NL4-3 is “had no effect when added at any time point”. Moreover, the EC50 in assay [5] (setting [12]) was at least 10000 nM; in assay [5] (setting [13]), over 10000 nM; in [8] (setting [14]) it was 14 nM; in [8] (setting [15]), 113 nM; in [8] (setting [16]) it was 36 nM; in assay [8] (setting [17]), over 4000 nM. Further, the figures for the EC50 in assay [8] (setting [18]), in [8] (setting [19]) and in [8] (setting [20]) were 227 nM, 251 nM and 903 nM, respectively. In assay [9], the “inhibition of luciferase … (virus production)” value was “inhibiting luciferase production only when added in the first stage; also recorded: does not attain complete inhibition relative to NFV”. In assay [9], the “inhibition of luciferase … (infection)” value was “inhibiting luciferase production only when added in the first stage”. In addition, in [10], the “inhibition of conversion of VLP p25 to p24” value is on record as “inhibited the conversion of HIV-1 WT VLP p25 to p24 in a dose-dependent manner”.

As for `CC(C)CN(C[C@@H](O)[C@H](Cc1ccccc1)NC(=O)O[C@H]1CO[C@H]2OCC[C@H]21)S(=O)(=O)c1ccc(N)cc1` [Darunavir], the “Fold change in EC50 (SD) relative to parental strain” value in assay [11] is reported as 41 (1.9); in assay [1], 1.2 (0.4); in [4] it was 2.3; in assay [6] it was 0.90 (0.1); in [7], 1.1 (0.1). The EC50 in assay [2] was 2.3 nM; in assay [5] (setting [12]), 4.5 nM.

`O=C1Nc2ccc(Cl)cc2[C@@](C#CC2CC2)(C(F)(F)F)O1` [Efavirenz]: the “Fold change in EC50 (SD) relative to parental strain” value in [11] is 0.20 (0.01); in [1] it was 1.0 (0.1); in assay [4], 1.4; in assay [6], 55 (2.2); in assay [7] it was 0.60 (0.3). The “time postinfection” value with HIV-1 NL4-3 stood at 6 h.

Consider `Nc1ccn([C@@H]2CS[C@H](CO)O2)c(=O)n1` [Lamivudine], for which, in assay [5] (setting [12]), the EC50 was 470 nM.

As to `Cc1c(O)cccc1C(=O)N[C@@H](CSc1ccccc1)[C@H](O)CN1C[C@H]2CCCC[C@H]2C[C@H]1C(=O)NC(C)(C)C` [NFV], the “effect on luciferase signal” value with HIV-1 NL4-3 was “had no effect when added at any time point”. This compound also gave an EC50 in assay [5] (setting [12]) of 5 nM. For the same compound, in assay [9], the “inhibition of luciferase … (virus production)” value was “luciferase activity was inhibited” and the “inhibition of luciferase … (infection)” value was “luciferase production was not inhibited”. The compound also registered an EC50 at HIV-1 gp160 of over 2000 nM.

`Cc1ccnc2c1NC(=O)c1cccnc1N2C1CC1` [Nevirapine]: the “Fold change in EC50 (SD) relative to parental strain” value in [11] is given as 0.83 (0.08); in assay [1], 1.3 (0.2); in assay [3], 1.6 (0.2); in assay [6], >131 (108); in [7], 0.89 (0.59). For the same compound, the EC50 in assay [2] is 930 nM; in assay [5] (setting [12]), 170 nM.

With `Cc1nnc(C(=O)NC(C)(C)c2nc(C(=O)NCc3ccc(F)cc3)c(O)c(=O)n2C)o1` [Raltegravir], the “Fold change in EC50 (SD) relative to parental strain” value in [11] is on record as 0.18 (0.07); in assay [1] it was 1.9 (0.6); in [6], 1.8 (0.4); in assay [7], >340 (72). Besides, the EC50 was 3.3 nM in assay [2] and 3.4 nM in assay [5] (setting [12]). Further, the “competition for the binding of [3H]BMS-955176” value at HIV-1 Gag (WT LAI VLPs) is reported as “did not compete”. Also, the “time postinfection” value in the assay with HIV-1 NL4-3 turned out to be 8 h.

On to `Cc1cc(/C=C/C#N)cc(C)c1Nc1ccnc(Nc2ccc(C#N)cc2)n1` [Rilpivirine], for which the “Fold change in EC50 (SD) relative to parental strain” value in assay [11] was 2.6 (0.8); in assay [1], 2.0 (0.3); in [6] it was 8.1 (1.5); in assay [7] it was 1.0 (0.5).

With `C[C@H](Cn1cnc2c(N)ncnc21)OCP(=O)(O)O` [Tenofovir], the EC50 was 5 nM in [2] and 7.2 nM in assay [5] (setting [12]).

`Cc1cn([C@H]2C[C@H](N=[N+]=[N-])[C@@H](CO)O2)c(=O)[nH]c1=O` [Zidovudine]: the “Fold change in EC50 (SD) relative to parental strain” value in assay [1] is reported as 0.78 (0.03); in assay [3], 79 (5); in [6], 1.03 (0.17); in assay [7], 0.82 (0.41).
